# Reference: patent publication US7772269B2, “Pyrazole analogs” (Pfizer Inc., priority 2006, dated 2010)
# Tests used:
# [1] = Emesis evaluation in beagle dogs; assay type: in vivo; details: for emesis / emesis (number of dogs): dogs
# Protocol: Experiments were undertaken to differentiate local gastrointestinal emetic stimuli during dissolution and absorption of an oral compound from emetic stimuli produced during systemic exposure through the bloodstream. […] These findings were observed after 8-12 kg purpose-bred beagle dogs were administered 4-(3-{[4-(1-methyl-1H-pyrazol-5-yl)phenyl]thio}phenyl)tetrahydro-2H-pyran-4-carboxamide by IV infusion, using a loading dose followed by a slow infusion to attain a peak blood level over 30 minutes to 1 hour in duration. More specifically, compounds were diluted in phosphate buffered saline to a concentration where 10 ml/kg total volume was administered through an intravenous catheter using an infusion pump, with approximately 90% of the total dose being delivered in the first 5 minutes, and the remaining dose administered over the next 25 minutes. Similar delivery methods to produce an exposure that approximates the systemic pharmacokinetic profile seen with oral delivery are anticipated to give similar results. More rapid methods of administration and the resultant high plasma concentrations are not anticipated to discriminate useful compounds from non-useful compounds. For example, IV bolus administration may produce a higher peak plasma concentration and systemic gastrointestinal effects than those achieved for compounds that following absorption from the GI tract, would have acceptable peak plasma concentrations and therapeutic efficacy. […] Periodic serum and plasma samples were obtained during the first 6 hours to document systemic inhibition of the 5-lipoxygenase enzyme as well as exposure levels of the compound. […] In one study, 4-(3-(4-(2-methyl-1H-imidazol-1-yl)phenylthio)phenyl)-tetrahydro-2H-pyran-4-carboxamide was administered intravenously at 10 mg/kg, 30 mg/kg and 60 mg/kg as well as 30 mg per kg by the oral route. […] In another experiment, 4-(3-{[4-(1-methyl-1H-pyrazol-5-yl)phenyl]thio}phenyl)tetrahydro-2H-pyran-4-carboxamide was administered orally at doses of 100 mg per kg, 300 mg per kg, and 600 mg per kg, with emesis only observed in 2 dogs at 100 mg per kg and one dog at 300 mg per kg.
# [2] = clinical trial; cited from earlier work
# 5-LO [3] = biological target: T1, 5-LO (Homo sapiens, UniProt P09917); assay: Fluorescence Intensity 5-LO Enzyme Assay; assay type: biochemical; details: recombinant human 5-LO crude lysate, H2DCFDA oxidation, 3 μM arachidonic acid
# T1 sequence (P09917 1-674): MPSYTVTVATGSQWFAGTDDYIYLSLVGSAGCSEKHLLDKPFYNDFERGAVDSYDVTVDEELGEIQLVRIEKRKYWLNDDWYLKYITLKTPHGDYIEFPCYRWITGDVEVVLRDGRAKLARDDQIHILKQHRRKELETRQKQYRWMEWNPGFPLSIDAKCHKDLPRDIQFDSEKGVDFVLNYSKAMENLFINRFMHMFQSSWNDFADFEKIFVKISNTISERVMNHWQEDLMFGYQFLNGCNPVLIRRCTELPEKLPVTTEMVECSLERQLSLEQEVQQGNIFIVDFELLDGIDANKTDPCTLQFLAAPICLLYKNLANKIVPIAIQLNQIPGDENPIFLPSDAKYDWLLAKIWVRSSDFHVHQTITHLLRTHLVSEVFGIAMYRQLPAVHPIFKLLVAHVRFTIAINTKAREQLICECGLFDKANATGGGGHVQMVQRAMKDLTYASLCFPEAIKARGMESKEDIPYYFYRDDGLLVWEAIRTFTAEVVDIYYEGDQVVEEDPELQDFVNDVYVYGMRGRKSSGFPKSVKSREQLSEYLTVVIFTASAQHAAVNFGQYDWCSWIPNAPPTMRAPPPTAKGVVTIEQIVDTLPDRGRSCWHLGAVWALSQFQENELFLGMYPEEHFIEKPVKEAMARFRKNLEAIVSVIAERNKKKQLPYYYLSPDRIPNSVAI
# Protocol: The enzyme assay is based on the oxidation of the non-fluorescent compound 2′,7′-dichlorodihydrofluorescein diacetate (H2DCFDA) to the fluorescent 2′,7′ dichlorofluorescein by 5-LO in an arachidonic acid-dependent reaction. Ester cleavage of the acetate groups of the substrate H2DCFDA must occur prior to oxidation. This is achieved through use of a crude cell lysate preparation of recombinant human 5-LO. The enzyme assay ([…]) contained 50 mM Tris (pH 7.5), 2 mM CaCl2, 2 mM EDTA, 3 μM arachidonic acid (Nu-Chek Prep; #S-1133), 10 μM ATP, 10 μM H2DCFDA (Invitrogen; #D399), inhibitor (varying concentration) and recombinant human 5-LO enzyme (1.25 μL crude lysate per well).
# Inhibitors (dissolved in DMSO) were plated into a 384-well assay plate (Corning #3654) at 1 μL followed by a 20 μL addition of a solution containing 5-LO enzyme and H2DCFDA. Enzyme and H2DCFDA were pre-incubated for 5 minutes to allow time for acetate group cleavage of the dye prior to addition to the assay plate. After a 10 minute preincubation of inhibitor and enzyme/dye mix, the assay was initiated by the addition of a substrate solution containing arachidonic acid and ATP. The enzymatic reaction was run for 20 min at room temperature and terminated by the addition of 40 μL of acetonitrile. Assay plates were read in a plate reader using standard wavelengths for fluorescein. […]
# 5-LO [4] = biological target: T2, 5-LO (Rattus norvegicus, UniProt P12527); assay: Carrageenan-induced eicosanoid production in the rat air pouch; assay type: in vivo; details: leukotriene levels in rat air pouch fluid, lower % = higher activity
# T2 construct: from tissue; host or cells: rat air pouch (Lewis rat, in vivo)
# T2 sequence (P12527 1-673): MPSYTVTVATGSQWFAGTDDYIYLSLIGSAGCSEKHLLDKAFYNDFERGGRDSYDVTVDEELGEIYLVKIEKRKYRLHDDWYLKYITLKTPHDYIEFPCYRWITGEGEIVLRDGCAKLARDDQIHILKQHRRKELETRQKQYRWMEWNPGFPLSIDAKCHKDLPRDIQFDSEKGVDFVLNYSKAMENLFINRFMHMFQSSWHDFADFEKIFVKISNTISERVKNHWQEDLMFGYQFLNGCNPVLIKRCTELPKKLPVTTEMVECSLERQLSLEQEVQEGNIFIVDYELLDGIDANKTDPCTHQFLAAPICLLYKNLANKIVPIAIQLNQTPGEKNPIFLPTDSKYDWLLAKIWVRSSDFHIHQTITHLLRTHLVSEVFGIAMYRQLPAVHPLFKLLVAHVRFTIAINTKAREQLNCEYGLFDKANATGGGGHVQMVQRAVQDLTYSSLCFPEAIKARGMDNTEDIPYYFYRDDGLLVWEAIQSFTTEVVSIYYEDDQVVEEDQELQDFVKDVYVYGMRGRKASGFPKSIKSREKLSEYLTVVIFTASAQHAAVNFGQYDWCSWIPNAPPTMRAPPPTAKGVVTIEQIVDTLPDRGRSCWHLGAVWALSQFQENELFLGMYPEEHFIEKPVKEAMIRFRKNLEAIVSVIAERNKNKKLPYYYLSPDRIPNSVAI
# Protocol: For a correct interpretation of the results, it is noted that the lower the % of control, the higher the activity of a test compound. Male Lewis rats (175-200 g), Charles River Laboratories, Wilmington, Mass.) were used in the study. Air pouches were produced by subcutaneous injection of 20 ml of sterile air into the intrascapular area of the back. Pouches were allowed to develop for 1 day. Animals (6 per group) were fasted with free access to water for 16 to 24 hours prior to drug administration. Drugs or vehicle were administered by gavage 1 hour prior to injection of 2 ml of a 1% suspension of carrageenan (FMC BioPolymer, Philadelphia, Pa., Cat. # GP209-NF) dissolved in saline into the pouch. At 3 hours post-carrageenan injection, 1 ml of 50 μg/ml calcium ionophore in saline (A23187, Sigma Chemical Co, St. Louis, M, Cat. #C-7522) was injected into the pouch and the pouch fluid collected 10 minutes later by lavage. The fluid was centrifuged at 3500 rpm for 10 minutes at 4° C., and the supernatants were collected for analysis. Leukotriene levels were quantitated by ELISA according to the manufacturer's directions (Cayman Chemical Company, Ann Arbor, Mich.).
# 5-lipoxygenase enzyme = assay: Systemic inhibition of the 5-lipoxygenase enzyme in dogs (emesis study); assay type: in vivo, beagle dogs; details: 5 mg/kg IV
# Protocol: Experiments were undertaken to differentiate local gastrointestinal emetic stimuli during dissolution and absorption of an oral compound from emetic stimuli produced during systemic exposure through the bloodstream. […] These findings were observed after 8-12 kg purpose-bred beagle dogs were administered 4-(3-{[4-(1-methyl-1H-pyrazol-5-yl)phenyl]thio}phenyl)tetrahydro-2H-pyran-4-carboxamide by IV infusion, using a loading dose followed by a slow infusion to attain a peak blood level over 30 minutes to 1 hour in duration. More specifically, compounds were diluted in phosphate buffered saline to a concentration where 10 ml/kg total volume was administered through an intravenous catheter using an infusion pump, with approximately 90% of the total dose being delivered in the first 5 minutes, and the remaining dose administered over the next 25 minutes. Similar delivery methods to produce an exposure that approximates the systemic pharmacokinetic profile seen with oral delivery are anticipated to give similar results. More rapid methods of administration and the resultant high plasma concentrations are not anticipated to discriminate useful compounds from non-useful compounds. […]
# 5-LO [5] = biological target: T1, 5-LO; assay: Eicosanoid production from human whole blood (HWB/LTB4: ionophore induced LTB4); assay type: cell-based; set-up: from tissue; host or cells: pooled human whole blood
# Protocol: Human whole blood was collected from healthy or asthmatic human donors in 10 ml heparinized tubes (Vacutainer tubes; Becton Dickenson, Franklin Lakes, N.J.). Collected blood was pooled and 80 μl was dispensed into each well of 384 well polypropylene plates using a Multi-Drop™ 384-well dispenser (Titertek, Huntsville, Ala.). Varying concentrations of compounds were dissolved in DMSO then 2 μl/well was added to the blood using a PlateMate Plus™ automated pipetting station (Matrix Technologies, Hudson, N.H.). The compounds were preincubated with the blood at room temperature for 10 minutes followed by stimulation with 40 μl calcium ionophore (A23187, Sigma Chemical Co, St. Louis, Mo., Cat. # C-7522) and 30 μl arachidonic acid (S-1133, NU-Chek PREP, Inc., Elysian, MN, Cat. # S-1133) dissolved in 60% ethanol. After 15 min incubation at 37° C. in a shallow water bath, the blood was centrifuged at 800 g for 10 minutes at 4° C., the supernatants collected, and leukotriene and prostaglandin levels measured by ELISA according to the manufacturer's directions (Cayman Chemical Company, Ann Arbor, Mich.). The assay was performed at a final concentration of 2.5% DMSO. Results of this assay are shown as follows:
# HWB/LTB4: Ionophore Induced LTB4 from Human Whole Blood
smiles,measurement,setting,value
"Cc1nccn1-c1ccc(Sc2cccc(C3(C(N)=O)CCOCC3)c2)cc1 [4-(3-(4-(2-methyl-1H-imidazol-1-yl)phenylthio)phenyl)-tetrahydro-2H-pyran-4-carboxamide, reference compound]",emesis,"[1]; intravenously at 10, 30 and 60 mg/kg and 30 mg per kg oral",Emesis was observed in all dogs
same,nausea or emesis,[2],30 % of human subjects
"Cn1nccc1-c1ccc(Sc2cccc(C3(C(N)=O)CCOCC3)c2)cc1 [(Ib), 4-(3-{[4-(1-methyl-1H-pyrazol-5-yl)phenyl]thio}phenyl)tetrahydro-2H-pyran-4-carboxamide]",IC50,5-LO [3],229 nM
same,% of Control,5-LO [4]; dose 1 mg/kg by gavage,20.24 % of Control
same,% of Control,"5-LO [4]; dose 3 mg/kg by gavage, 3 mg/kg",5.23 % of Control
same,% of Control,"5-LO [4]; dose 3 mg/kg by gavage, listed as 4-(3-{[4-(1-methyl-1H-pyrazol-5-yl)phenyl]thio}phenyl)tetrahydro-2H-pyran-4-carb, 3 mg/kg",20 % of Control
same,% of Control,5-LO [4]; dose 10 mg/kg by gavage,2.30 % of Control
same,nausea and emesis,"[1]; beagle dogs, IV infusion (loading dose followed by slow infusion)",produce nausea and emesis through systemic exposure
same,emesis,[1]; 5 mg/kg IV,no observed emesis
same,emesis (number of dogs),"[1]; another experiment, oral 100 mg per kg",2 dogs
same,emesis (number of dogs),"[1]; another experiment, oral 300 mg per kg",one dog
same,emesis,"[1]; another experiment, oral 600 mg per kg",No emesis was observed
same,emesis,"[1]; oral route, doses of 10 and 100 mg per kg",emesis in only one dog at 100 mg per kg
same,inhibition of the 5-LO enzyme,5-lipoxygenase enzyme,100%
same,IC50,5-LO [5],135 nM
same,IC80,5-LO [5],397 nM
same,IC90,5-LO [5],716 nM
"Cn1nccc1-c1ccc(Sc2cccc(C3(C(N)=O)CCOCC3)c2)cc1F [(Ia), 4-(3-{[3-fluoro-4-(1-methyl-1H-pyrazol-5-yl)phenyl]thio}phenyl)tetrahydro-2H-pyran-4-carboxamide]",IC50,5-LO [3],204 nM
same,% of Control,5-LO [4]; dose 1 mg/kg by gavage,25.74 % of Control
same,% of Control,5-LO [4]; dose 3 mg/kg by gavage,0 % of Control
same,% of Control,5-LO [4]; dose 10 mg/kg by gavage,0 % of Control
same,IC50,5-LO [5],152 nM
same,IC80,5-LO [5],357 nM
same,IC90,5-LO [5],1310 nM
